Experimental data from ChEMBL document CHEMBL2390823, “Aryl uracil inhibitors of hepatitis C virus NS5B polymerase: synthesis and characterization of analogs with a fused 5,6-bicyclic ring motif” (Bioorg Med Chem Lett, 2013).

Key:
Hepatitis C virus [1] = test: Antiviral activity against Hepatitis C virus genotype 1b infected in human HuH7 cells in presence of 5% fetal calf serum; assay type: functional, organism-based, Hepacivirus hominis; conditions: Huh-7
Hepatitis C virus [2] = test: Antiviral activity against Hepatitis C virus genotype 1a infected in human HuH7 cells in presence of 5% fetal calf serum; assay type: functional, organism-based, Hepacivirus hominis; conditions: subtype 1a, Huh-7
[3] = Inhibition of Hepatitis C virus genotype 1a NS5B polymerase; set-up: species or system Hepatitis C virus subtype 1a
Hepatitis C virus [4] = test: Antiviral activity against Hepatitis C virus genotype 1b infected in human HuH7 cells in presence of 40% human plasma; assay type: functional, organism-based, Hepacivirus hominis; conditions: Huh-7, Plasma
Hepatitis C virus [5] = test: Inhibition of Hepatitis C virus genotype 1b NS5B polymerase; set-up: species or system Hepatitis C virus subtype 1b
[6] = Half life in rat at 5 mg/kg, iv; assay type: ADME, organism-based; set-up: dose 5 mg/kg, route intravenous; conditions: in vivo
[7] = (§1) Cmax in rat at 5 mg/kg, po; assay type: ADME, organism-based; set-up: dose 5 mg/kg, route oral; conditions: in vivo
[8] = (§2) Half life in rat at 5 mg/kg, po; assay type: ADME, organism-based; set-up: dose 5 mg/kg, route oral; conditions: in vivo
[9] = (§3) Tmax in rat at 5 mg/kg, po; assay type: ADME, organism-based; set-up: dose 5 mg/kg, route oral; conditions: in vivo
[10] = (§4) Oral bioavailability in rat at 5 mg/kg; assay type: ADME, organism-based; conditions: in vivo
[11] = (§5) AUC (0 to infinity) in rat at 5 mg/kg, po; assay type: ADME, organism-based, Plasma; set-up: dose 5 mg/kg, route oral, time infinity; conditions: plasma
[12] = (§6) Plasma clearance in rat at 5 mg/kg, iv; assay type: ADME, organism-based; set-up: dose 5 mg/kg, route intravenous; conditions: plasma
[13] = Effective permeability of the compound by PAMPA; assay type: ADME; conditions: read-out: Peff
Rattus norvegicus [14] = test: as §1; assay type: ADME, organism-based; set-up: dose 5 mg/kg, route oral; conditions: in vivo
Rattus norvegicus [15] = test: as §2; assay type: ADME, organism-based; set-up: dose 5 mg/kg, route oral; conditions: in vivo
Rattus norvegicus [16] = test: as §3; assay type: ADME, organism-based; set-up: dose 5 mg/kg, route oral; conditions: in vivo
Rattus norvegicus [17] = test: as §4; assay type: ADME, organism-based; conditions: in vivo
Rattus norvegicus [18] = test: as §5; assay type: ADME, organism-based, Plasma; set-up: dose 5 mg/kg, route oral, time infinity; conditions: in vivo
Rattus norvegicus [19] = test: as §6; assay type: ADME, organism-based; set-up: dose 5 mg/kg, route intravenous; conditions: in vivo

| SMILES | EC50 (Hepatitis C virus [1]) | EC50 (Hepatitis C virus [2]) | IC50 [3] | EC50 (Hepatitis C virus [4]) | IC50 (Hepatitis C virus [5]) | half-life [6] | Cmax [7] | half-life [8] | Tmax [9] | bioavailability [10] | AUC(0-inf) [11] | clearance [12] | Papp [13] | Cmax (Rattus norvegicus [14]) | t1/2 (Rattus norvegicus [15]) | Tmax (Rattus norvegicus [16]) | F (Rattus norvegicus [17]) | AUC (Rattus norvegicus [18]) | CL (Rattus norvegicus [19]) |
| --- | --- | --- | --- | --- | --- | --- | --- | --- | --- | --- | --- | --- | --- | --- | --- | --- | --- | --- | --- |
| COc1c(-c2ccc3c(CNS(C)(=O)=O)coc3c2)cc(-n2ccc(=O)[nH]c2=O)cc1C(C)(C)C | 22 nM | 240 nM | 9 nM | 260 nM | 21 nM | – | – | – | – | – | – | – | – | – | – | – | – | – | – |
| COc1c(-c2ccc3c(c2)CC=C3CNS(C)(=O)=O)cc(-n2ccc(=O)[nH]c2=O)cc1C(C)(C)C | 3 nM | 14 nM | 6 nM | 22 nM | 11 nM | 114 min | 660 ng/mL | 180 min | 370 min | 86% | 7200 ng·h/mL | 12.8 mL/min/kg | 5.43 ×10⁻⁶ cm/s | – | – | – | – | – | – |
| COc1c(-c2ccc3c(c2)CC=C3CN(C)S(C)(=O)=O)cc(-n2ccc(=O)[nH]c2=O)cc1C(C)(C)C | 100 nM | 4 nM | 7 nM | 50 nM | 20 nM | – | – | – | – | – | – | – | – | – | – | – | – | – | – |
| COc1c(-c2ccc3c(c2)CC=C3C(C)(C)NS(C)(=O)=O)cc(-n2ccc(=O)[nH]c2=O)cc1C(C)(C)C | > 1000 nM | 1000 nM | 185 nM | > 1000 nM | 215 nM | – | – | – | – | – | – | – | 4.06 ×10⁻⁶ cm/s | – | – | – | – | – | – |
| COc1c(-c2ccc3c(CNS(C)(=O)=O)csc3c2)cc(-n2ccc(=O)[nH]c2=O)cc1C(C)(C)C | 3 nM | 27 nM | 5 nM | 46 nM | 10 nM | 216 min | 1410 ng/mL | 192 min | 30 min | 41% | 9300 ng·h/mL | 4.5 mL/min/kg | 0.81 ×10⁻⁶ cm/s | – | – | – | – | – | – |
| COc1c(-c2ccc3cc(CNS(C)(=O)=O)sc3c2)cc(-n2ccc(=O)[nH]c2=O)cc1C(C)(C)C | > 1000 nM | > 1000 nM | 180 nM | > 10000 nM | 245 nM | – | – | – | – | – | – | – | 0.81 ×10⁻⁶ cm/s | – | – | – | – | – | – |

Further lines, results first:

| EC50 (Hepatitis C virus [1]) | EC50 (Hepatitis C virus [2]) | IC50 [3] | EC50 (Hepatitis C virus [4]) | IC50 (Hepatitis C virus [5]) | half-life [6] | Cmax [7] | half-life [8] | Tmax [9] | bioavailability [10] | AUC(0-inf) [11] | clearance [12] | Papp [13] | Cmax (Rattus norvegicus [14]) | t1/2 (Rattus norvegicus [15]) | Tmax (Rattus norvegicus [16]) | F (Rattus norvegicus [17]) | AUC (Rattus norvegicus [18]) | CL (Rattus norvegicus [19]) | SMILES |
| --- | --- | --- | --- | --- | --- | --- | --- | --- | --- | --- | --- | --- | --- | --- | --- | --- | --- | --- | --- |
| 89 nM | 480 nM | 16 nM | 560 nM | 41 nM | 138 min | 1010 ng/mL | 144 min | 15 min | 62% | 5100 ng·h/mL | 10.2 mL/min/kg | – | – | – | – | – | – | – | COc1c(-c2ccc3c(c2)CCC3(C)CNS(C)(=O)=O)cc(-n2ccc(=O)[nH]c2=O)cc1C(C)(C)C (centres undefined) |
| 1 nM | 2 nM | 3 nM | 1 nM | 3 nM | 168 min | 120 ng/mL | 180 min | 150 min | 18% | 880 ng·h/mL | 19.8 mL/min/kg | 0.47 ×10⁻⁶ cm/s | – | – | – | – | – | – | COc1c(-c2ccc3c(c2)CC/C3=N\NS(C)(=O)=O)cc(-n2ccc(=O)[nH]c2=O)cc1C(C)(C)C |
| > 100 nM | 140 nM | 33 nM | 950 nM | 47 nM | – | – | – | – | – | – | – | 0.24 ×10⁻⁶ cm/s | – | – | – | – | – | – | COc1c(-c2ccc3c(c2)CCC3NNS(C)(=O)=O)cc(-n2ccc(=O)[nH]c2=O)cc1C(C)(C)C (centres undefined) |
| 27 nM | 51 nM | 11 nM | 18 nM | 22 nM | 66 min | – | – | – | – | – | – | 0.22 ×10⁻⁶ cm/s | 0.03 µg/mL | 1 h | 19.8 min | 1.4% | 0.5 µg·h/mL | 1.53 L/h/kg | COc1c(C(=O)Nc2ccc(NS(C)(=O)=O)cc2)cc(N2CCC(=O)NC2=O)cc1C(C)(C)C |
| > 1000 nM | > 1000 nM | 540 nM | – | 510 nM | – | – | – | – | – | – | – | – | – | – | – | – | – | – | COc1c(-c2ccc3c(CNS(C)(=O)=O)noc3c2)cc(-n2ccc(=O)[nH]c2=O)cc1C(C)(C)C |
| > 1000 nM | > 1000 nM | 19 nM | – | 45 nM | – | – | – | – | – | – | – | 1.4 ×10⁻⁶ cm/s | – | – | – | – | – | – | COc1c(-c2ccc3nc(NS(C)(=O)=O)sc3c2)cc(-n2ccc(=O)[nH]c2=O)cc1C(C)(C)C |
| 3 nM | 20 nM | 8 nM | 13 nM | 18 nM | 108 min | 2360 ng/mL | 138 min | 19.8 min | 119% | 13500 ng·h/mL | 7.5 mL/min/kg | 8.93 ×10⁻⁶ cm/s | – | – | – | – | – | – | COc1c(-c2ccc3c(c2)CCC3CNS(C)(=O)=O)cc(-n2ccc(=O)[nH]c2=O)cc1C(C)(C)C (centres undefined) |
